# Test results: patent US9969742B2, “Imidazotriazinone compounds” (Ironwood Pharmaceuticals, Inc., priority 2012, dated 2018)
# Target: T1, PDE9A2 (Homo sapiens, UniProt O76083)
# T1 construct: purchased Reaction Biology Corporation, Malvern, Pa
# Assay: Phosphodiesterase enzyme screening assay, PDE9A2
# Type: biochemical
# Settings: Table 1; 10 concentrations; 4.0 μM cGMP substrate; 1 hour at R.T.; read-out: Band (PDE9A2 IC50)
# From the text: Compounds of the invention were screened against PDE1A, PDE1B, PDE2A, PDE3A, PDE3B, PDE4A1A, PDE4B1, PDE4D3, PDE5A1, PDE6C, PDE7A, PDE8A1, PDE9A2, PDE10A2 AND PDE11A isoforms of the phosphodiesterase enzyme to determine activity and overall selectivity through comparative analysis. […] Where 8-methoxy-IBMX and Zaprinast were used as reference inhibitors.
# The phosphodiesterase enzyme isoforms were obtained from a commercial retailer (Reaction Biology Corporation, Malvern, Pa.) for use in the instant screening assay.
# The analysis was completed using the Caliper LabChip 3000 and a 12-sipper LabChip. LabChip assays are separations-based, meaning that the product and substrate are electrophoretically separated, thereby minimizing interferences and yielding the highest data quality available on any screening platform. […] High Z′ values, few false positives, few false negatives and analytical quality reproducibility are the reasons cited for the increasing reliance on the LabChip assays.
# The off-chip incubation mobility-shift phosphodiesterase assay uses a microfluidic chip to measure the conversion of a fluorescent cyclic AMP substrate to a 5′-AMP product, or a cyclic GMP substrate to a 5′-GMP product. The reaction mixture, from a microtiter plate well, is introduced through a capillary sipper onto the chip, where the fluorescent substrate and product are separated by electrophoresis and detected via laser-induced fluorescence. […] The precision of microfluidics allows researchers to detect subtle interactions between drug candidates and therapeutic targets.
# Reactions were carried out in 100 mM HEPES (pH 7.5), 5 mM MgCl2, 1 mM DTT, 0.003% Brij, 4.0 μM cGMP substrate. The reaction was started by addition of cGMP or cAMP and incubated for 1 hour at R.T. The reaction was terminated by the addition of stop buffer containing 100 mM HEPES (pH 7.5), 15 mM EDTA, 0.015% Brij-35, 5% DMSO. Cyclic AMP/GMP substrate and 5′-AMP/5′-GMP product were separated by charge using electrophoretic mobility shift. Product formed was compared to control wells to determine inhibition or enhancement of enzyme activity.
# Data points were averages of quadruplicate wells and error bars represented the SEM for each point.
# T1 sequence (O76083 1-533 isoform O76083-2): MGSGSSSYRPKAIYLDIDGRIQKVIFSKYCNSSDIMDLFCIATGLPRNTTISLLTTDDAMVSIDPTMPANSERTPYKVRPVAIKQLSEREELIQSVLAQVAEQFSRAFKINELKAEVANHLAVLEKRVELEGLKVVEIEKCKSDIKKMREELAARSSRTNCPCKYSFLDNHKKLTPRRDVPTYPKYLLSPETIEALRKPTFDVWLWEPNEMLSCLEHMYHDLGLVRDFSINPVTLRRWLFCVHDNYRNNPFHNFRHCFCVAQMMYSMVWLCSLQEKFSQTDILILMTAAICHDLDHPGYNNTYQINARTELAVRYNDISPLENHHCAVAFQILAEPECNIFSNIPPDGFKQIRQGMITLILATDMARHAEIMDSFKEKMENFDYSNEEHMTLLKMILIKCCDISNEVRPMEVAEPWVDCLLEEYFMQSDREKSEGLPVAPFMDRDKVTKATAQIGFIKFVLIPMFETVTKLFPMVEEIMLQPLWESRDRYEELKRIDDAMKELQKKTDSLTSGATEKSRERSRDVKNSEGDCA
row,Compound,IC50 [nM]
1,"CC1CN(S(=O)(=O)c2ccccc2C#N)CC1c1nn2c(C3CCOCC3)ncc2c(=O)[nH]1 (single isomer, unassigned; (+)) [(+)-2-(((3,4-trans)-3-methyl-4-(4-oxo-7-(tetrahydro-2H-pyran-4-yl)-3,4-dihydroimidazo[5,1-f][1,2,4]triazin-2-yl)pyrrolidin-1-yl)sulfonyl)benzonitrile]",1000 to 10000
2,"CC1CN(Cc2ccc(C#N)cc2)CC1c1nn2c(C3CCOCC3)ncc2c(=O)[nH]1 (single isomer, unassigned; (+)) [(+)-4-(((3,4-trans)-3-methyl-4-(4-oxo-7-(tetrahydro-2H-pyran-4-yl)-3,4-dihydroimidazo[5,1-f][1,2,4]triazin-2-yl)pyrrolidin-1-yl)methyl)benzonitrile]",< 1000
3,"CC1CN(S(=O)(=O)c2ccc(C#N)cc2)CC1c1nn2c(C3CCOCC3)ncc2c(=O)[nH]1 (single isomer, unassigned; (+)) [(+)-4-(((3,4-trans)-3-methyl-4-(4-oxo-7-(tetrahydro-2H-pyran-4-yl)-3,4-dihydroimidazo[5,1-f][1,2,4]triazin-2-yl)pyrrolidin-1-yl)sulfonyl)benzonitrile]",> 10000
4,"CC1CN(Cc2ccccc2)CC1c1nn2c(C3CCN(C(=O)OC(C)(C)C)CC3)ncc2c(=O)[nH]1 (single isomer, unassigned; (+)) [(+)-tert-butyl 4-(2-((3,4-trans)-1-benzyl-4-methylpyrrolidin-3-yl)-4-oxo-3,4-dihydroimidazo[1,5-f][1,2,4]triazin-7-yl)piperidine-1-carboxylate]",1000 to 10000
5,"CC1CN(Cc2ccccc2)CC1c1nn2c(C3CCOC3)ncc2c(=O)[nH]1 (single isomer, unassigned; (-)) [(−)-2-(1-(3,4-trans)-benzyl-4-methylpyrrolidin-3-yl)-7-(tetrahydrofuran-3-yl)imidazo[5,1-f][1,2,4]triazin-4(3H)-one]",1000 to 10000
6,"CC1CN(S(=O)(=O)c2ccc(F)cc2)CC1c1nn2c(C3CCOCC3)ncc2c(=O)[nH]1 (single isomer, unassigned; (-)) [(−)-2-((3,4-trans)-1-((4-fluorophenyl)sulfonyl)-4-methylpyrrolidin-3-yl)-7-(tetrahydro-2H-pyran-4-yl)imidazo[5,1-f][1,2,4]triazin-4(3H)-one]",1000 to 10000
7,"CC1CN(C(=O)c2ccccc2)CC1c1nn2c(C3CCOCC3)ncc2c(=O)[nH]1 (single isomer, unassigned; (-)) [(−)-2-((3,4-trans)-1-benzoyl-4-methylpyrrolidin-3-yl)-7-(tetrahydro-2H-pyran-4-yl)imidazo[5,1-f][1,2,4]triazin-4(3H)-one]",< 1000
8,"CC1CN(Cc2ccccc2)CC1c1nn2c(C3CCC(F)(F)CC3)ncc2c(=O)[nH]1 (single isomer, unassigned; (-)) [(−)-2-((3,4-trans)-1-benzyl-4-methylpyrrolidin-3-yl)-7-(4,4-difluorocyclohexyl)imidazo[5,1-f][1,2,4]triazin-4(3H)-one]",< 1000
9,"Cc1ccc(F)cc1-c1ncc2c(=O)[nH]c(C3CN(Cc4ccccc4)CC3C)nn12 (single isomer, unassigned; (-)) [(−)-2-((3,4-trans)-1-benzyl-4-methylpyrrolidin-3-yl)-7-(5-fluoro-2-methylphenyl)imidazo[1,5-f][1,2,4]triazin-4(3H)-one]",1000 to 10000
10,"CC1CN(C(=O)c2ccncc2)CC1c1nn2c(C3CCOCC3)ncc2c(=O)[nH]1 (single isomer, unassigned; (-)) [(−)-2-((3,4-trans)-1-isonicotinoyl-4-methylpyrrolidin-3-yl)-7-(tetrahydro-2H-pyran-4-yl)imidazo[5,1-f][1,2,4]triazin-4(3H)-one]",< 1000

# Other lines, results leading:
row,IC50 [nM],Compound
1,< 1000,"CC1CN(Cc2ncc3ccccc3n2)CC1c1nn2c(C3CCOCC3)ncc2c(=O)[nH]1 (single isomer, unassigned; (+)) [(+)-2-((3,4-trans)-4-methyl-1-(quinazolin-2-ylmethyl)pyrrolidin-3-yl)-7-(tetrahydro-2H-pyran-4-yl)imidazo[5,1-f][1,2,4]triazin-4(3H)-one]"
2,< 1000,"CC1CN(Cc2ccc3ccccc3n2)CC1c1nn2c(C3CCOCC3)ncc2c(=O)[nH]1 (single isomer, unassigned; (+)) [(+)-2-((3,4-trans)-4-methyl-1-(quinolin-2-ylmethyl)pyrrolidin-3-yl)-7-(tetrahydro-2H-pyran-4-yl)imidazo[5,1-f][1,2,4]triazin-4(3H)-one]"
3,< 1000,"Cc1ccc(F)cc1-c1ncc2c(=O)[nH]c(C3CN(Cc4ncccn4)CC3C)nn12 (single isomer, unassigned; (+)) [(+)-7-(5-fluoro-2-methylphenyl)-2-((3,4-trans)-4-methyl-1-(pyrimidin-2-ylmethyl)pyrrolidin-3-yl)imidazo[1,5-f][1,2,4]triazin-4(3H)-one]"
4,< 1000,"CC1CN(C(C)c2ccccc2)CC1c1nn2c(C3CCOCC3)ncc2c(=O)[nH]1 (single isomer, unassigned; (-)) [listing 1 of 2 here]"
5,< 1000,"CC1CN(C(C)c2ccccc2)CC1c1nn2c(C3CCOCC3)ncc2c(=O)[nH]1 (single isomer, unassigned; (-)) [listing 2 of 2 here]"
6,< 1000,"CC1CN(Cc2ccccc2F)CC1c1nn2c(C3CCOCC3)ncc2c(=O)[nH]1 (single isomer, unassigned; (-)) [(−)-2-((3,4-trans)-1-(2-fluorobenzyl)-4-methylpyrrolidin-3-yl)-7-(tetrahydro-2H-pyran-4-yl)imidazo[5,1-f][1,2,4]triazin-4(3H)-one]"
7,< 1000,"CC1CN(C(=O)c2ccc(F)cc2)CC1c1nn2c(C3CCOCC3)ncc2c(=O)[nH]1 (single isomer, unassigned; (-)) [(−)-2-((3,4-trans)-1-(4-fluorobenzoyl)-4-methylpyrrolidin-3-yl)-7-(tetrahydro-2H-pyran-4-yl)imidazo[5,1-f][1,2,4]triazin-4(3H)-one]"
8,< 1000,"CC1CN(Cc2ccc(F)cc2)CC1c1nn2c(C3CCOCC3)ncc2c(=O)[nH]1 (single isomer, unassigned; (-)) [(−)-2-((3,4-trans)-1-(4-fluorobenzyl)-4-methylpyrrolidin-3-yl)-7-(tetrahydro-2H-pyran-4-yl)imidazo[5,1-f][1,2,4]triazin-4(3H)-one]"
9,< 1000,"COc1cccc(CN2CC(C)C(c3nn4c(C5CCOCC5)ncc4c(=O)[nH]3)C2)n1 (single isomer, unassigned; (-)) [(−)-2-((3,4-trans)-1-((6-methoxypyridin-2-yl)methyl)-4-methylpyrrolidin-3-yl)-7-(tetrahydro-2H-pyran-4-yl)imidazo[5,1-f][1,2,4]triazin-4(3H)-one]"
10,< 1000,"CCS(=O)(=O)N1CC(C)C(c2nn3c(C4CCOCC4)ncc3c(=O)[nH]2)C1 (single isomer, unassigned; (-)) [(−)-2-((3,4-trans)-1-(ethylsulfonyl)-4-methylpyrrolidin-3-yl)-7-(tetrahydro-2H-pyran-4-yl)imidazo[5,1-f][1,2,4]triazin-4(3H)-one]"
11,< 1000,"CC1CN(Cc2ccc3nccn3n2)CC1c1nn2c(C3CCOCC3)ncc2c(=O)[nH]1 (single isomer, unassigned; (-)) [(−)-2-((3,4-trans)-1-(imidazo[1,2-b]pyridazin-6-ylmethyl)-4-methylpyrrolidin-3-yl)-7-(tetrahydro-2H-pyran-4-yl)imidazo[5,1-f][1,2,4]triazin-4(3H)-one]"

# Same assay, conditions: read-out: Band (PDE9A2 IC50)
row,IC50 [nM],Compound
1,< 1000,"CC1CN(Cc2cn3ccccc3n2)CC1c1nn2c(-c3cccc(F)c3)ncc2c(=O)[nH]1 (single isomer, unassigned; (+)) [(+)-7-(3-fluorophenyl)-2-((3,4-trans)-1-(imidazo[1,2-a]pyridin-2-ylmethyl)-4-methylpyrrolidin-3-yl)imidazo[5,1-f][1,2,4]triazin-4(3H)-one]"
2,< 1000,"CC1CN(Cc2ncccn2)CC1c1nn2c(-c3cccc(F)c3)ncc2c(=O)[nH]1 (single isomer, unassigned; (+)) [(+)-7-(3-fluorophenyl)-2-((3,4-trans)-4-methyl-1-(pyrimidin-2-ylmethyl)pyrrolidin-3-yl)imidazo[5,1-f][1,2,4]triazin-4(3H)-one]"
3,1000 to 10000,"CC1CN(Cc2ccccn2)CC1c1nn2c(-c3ccc(F)cc3)ncc2c(=O)[nH]1 (single isomer, unassigned; (+)) [(+)-7-(4-fluorophenyl)-2-((3,4-trans)-4-methyl-1-(pyridin-2-ylmethyl)pyrrolidin-3-yl)imidazo[5,1-f][1,2,4]triazin-4(3H)-one]"
4,< 1000,"CC1CN(Cc2cccnc2)CC1c1nn2c(-c3ccc(F)cc3)ncc2c(=O)[nH]1 (single isomer, unassigned; (+)) [(+)-7-(4-fluorophenyl)-2-((3,4-trans)-4-methyl-1-(pyridin-3-ylmethyl)pyrrolidin-3-yl)imidazo[5,1-f][1,2,4]triazin-4(3H)-one]"
